Assay [1] in a line: Methyl mercaptan reducing ability (deodorizing activity), headspace GC/MS. The note with it: methyl mercaptan 1 μg/ml 2 ml, pH 7.5, 42 degrees C. 6 minutes; powders/granules 10 mg in 2 ml water; oil/flavoring liquid 2 ml; single ingredient 3 ppm. On the procedure: Using the cigarette prepared in Example 24-1, an experiment was conducted to identify reducing ability for the methyl mercaptan as a representative halitosis ingredient in the cigarette smoke.
Pine needle and rosemary based powders, granules, oils, and flavoring liquid, as well as pine needle based fragrance carrying ingredients, that is, alpha-pinene, bonyl acetate, and rosemary based fragrance carrying ingredients, that is, 1,8-cineol, and borneol were added to the cigarette filter. Thus, a cigarette including the cigarette filter was prepared to identify methyl mercaptan reducing ability.
A content of methyl mercaptan as used was 1 ppm [1 μg/ml] 2 ml. When the pine needle and rosemary based powders and granules were used, 10 mg of the sample was extracted with 2 ml of water and was used. In one example, when using the oil and flavoring liquid based on pine needle and rosemary, 2 ml thereof was used. As for a single ingredient, 3 ppm (3 μg/ml) of the sample was extracted with 2 ml of water and was used.
The analysis experiment of reducing ability for methyl mercaptan included a pretreatment process of the sample, and the analysis process under the headspace sampler condition and the GC/MS-SIM condition. First, 10 mg of pine needle and rosemary based powders and granules sample were put into a 20 ml vial, which was immersed in 2 ml of water for 1 hour. Next, 2 ml of 0.2 M potassium phosphate was added thereto and the pH was adjusted to 7.5. Thereafter, 2 ml of methyl mercaptan (1 μg/ml) was added thereto and the vial was sealed, followed by stirring with a Vortex mixer for 5 seconds. In the headspace sampler, reaction occurred at 42 degrees C. for 6 minutes, and methyl mercaptan isolated into headspace was directly analyzed via GC/MS. An area of methyl mercaptan obtained as a result of the GC/MS analysis was compared with that of the control to determine the reduction percentage.
Deodorizing Activity (DA, %)=[C−S]/C×100 • C: methyl mercaptan area of control • S: Methyl mercaptan area of test group • See Tokita, F. et al. Nippon Nogeikagaku Kaishi 58(6), p 585 to 589 [1984].
The GC/MS instrument based analysis conditions were set as follows. Headspace Sampler conditions were set as follows: culture temperature: 42 degrees C., culture duration: 6 minutes, and transfer liner temperature: 100 degrees C.
The GC/MS-SIM conditions were set as follows: DB-624(60 m, 0.25 mm, 0.25 um) column was used; Oven Temp: 35 degrees C. for 10 minutes; post run: 250 degrees C. for 30 minutes. Injector/Interface Temp was 150 degrees C. or 220 degrees C. For injection, Split 10:1, flow rate 1 ml/min, methyl mercaptan ion (m/z): quantitative ion 47; and qualitative ion 48 and 45. […]

Assay [2] deals with halitosis ingredient (Hydrogen sulfide) derived from oral microbes. Kind of assay: Sedimentation of halitosis ingredient by absorbance analysis (FeS, 700 nm) in cultured saliva. It counts as cell-based, oral bacteria in saliva. The following applies: cultured saliva 0.5 ml, FeSO4, 24 hours 37 degrees C. anaerobic, absorbance 700 nm. On the procedure: Using the cigarette prepared in Example 24-1, the sedimentation of halitosis ingredient thereof was measured via absorbance analysis. To this end, an experiment was conducted to identify the reducing ability for the halitosis ingredient derived from oral microbes when smoking the cigarette with the filter having the pine needle and rosemary based substances added thereto.
The experiment for measuring the sedimentation of halitosis ingredients was as follows. Hydrogen sulfide in a volatile sulfur compound as mouth odor ingredient generated when cultivating oral bacteria in saliva was combined with iron in a liquid state such that iron sulfide (FeS) in a form of a black precipitate occurred. Thus, the sedimentation of halitosis ingredient was analyzed. First, whole saliva was incubated for 48 hours at 37 degrees C. under anaerobic conditions. Then, […] of oil based test substance or 20 μl of a single ingredient was added to 0.5 ml cultured saliva. 0.05 g surfactant was added thereto. The salvia was mixed with 0.05 g ferrous sulfate II (FeSO4). The mixture was incubated for 24 hours at 37 degrees C. under anaerobic conditions. Thus, absorbance of the culture was measured at 700 nm to determine sedimentation of halitosis ingredients.
However, there was a limit in the detection in the direct analysis of cigarette due to the difference in smoking amount.

Regarding `CC1=CCC2CC1C2(C)C` (stereo not drawn) [α-Pinene], in assay [1], the “Methyl mercaptan Reducing ability (%)” value is given as 54.7%. Also, in assay [2], the “Halitosis ingredient (Hydrogen sulfide) Reducing ability (%)” value stood at 50.0%.

For the compound `CC(=O)O[C@@H]1C[C@@H]2CC[C@@]1(C)C2(C)C` [Bonyl acetate], the “Methyl mercaptan Reducing ability (%)” value in assay [1] was 41.7%. The “Halitosis ingredient (Hydrogen sulfide) Reducing ability (%)” value in assay [2] amounted to 36.0%.

Regarding `CC1(C)C2CCC1(C)C(O)C2` (centres unmarked) [Borneol], in assay [1], the “Methyl mercaptan Reducing ability (%)” value is listed as 30.7%. For the same compound, the “Halitosis ingredient (Hydrogen sulfide) Reducing ability (%)” value in assay [2] is 45.0%.

With `CC12CCC(CC1)C(C)(C)O2` [1,8-Cineol], the “Methyl mercaptan Reducing ability (%)” value in assay [1] is on record as 51.9%. For the same compound, in assay [2], the “Halitosis ingredient (Hydrogen sulfide) Reducing ability (%)” value is given as 37.0%.

Values taken from patent publication US20230071441A1, “CIGARETTE FILTER CONTAINING NATURAL PLANT MATERIAL, PREPARATION METHOD THEREOF, AND CIGARETTE INCLUDING THE FILTER” (KT & G Corporation, priority 2019, published 2023).
